Assay results: US8512726B1, “Molecular gel-based control release devices for pheromones” (The United States of America, as represented by the …, priority 2010, dated 2013)

Experiments:
[1] = Biodegradation: mineralization in compost, respirometer; conditions: room temperature (22° C.), compared to starch control
Experimental: The relative degradation rate of samples was determined using a respirometer (Micro-Oxymax System, Columbus Instruments, Columbus, Ohio). The respirometer CO2 sensor was calibrated with a CO2 standard gas (8,000 ppm). […] The analyzer was equipped with a thermoconductivity detector and was operated using helium gas.
Commercial compost was purchased locally and adjusted to 58% moisture (dry weight basis). The glass sample bottles (250 ml) were filled with 20.0 g compost and 0.30 g test sample that was gently mixed with the compost. The sample bottles were initially flushed with CO2-free air and sealed. Respirometry experiments were conducted at room temperature (22° C.) and CO2 concentration was read every 12 hr. Three replications were tested for each treatment and data were expressed in terms of percentage mineralization.

[2] = at 20 C; cited from earlier work
[3] = system: varroa (Varroa destructor); conditions: at elevated levels, honey bee colonies; cited from earlier work

Row | Compound | Mineralization rate (biodegradability) [1] | vapor pressure [2] [kPa] | Control of parasitic mites [3]
1 | mannitol dioctanoate [M8] | mineralized at nearly the same rate as the starch control | – | –
2 | CCCCCC(C)=O [2-heptanone] | – | 0.48 | controls parasitic mites
